Data reported in patent US20200181132A1, “QUINOXALINE AND PYRIDOPYRAZINE DERIVATIVES AS PI3K-BETA INHIBITORS” (JANSSEN PHARMACEUTICA NV, priority 2017, published 2020).
Where two headings read alike, the source gives them in different places.

Tests used:
[1] = molecular target: T1, PIK3Cα_h (Homo sapiens, UniProt P42336); assay: Enzyme binding assay (KINOMEscan), PIK3Cα; details: DiscoveRx
T1 construct: purchased DiscoveRx Corporation
Description: (§1) Enzyme Binding Assays (KINOMEscan®)
(§2) Kinase enzyme binding affinities of compounds disclosed herein were determined using the KINOMEscan technology performed by DiscoveRx Corporation, San Diego, Calif., USA (www.kinomescan.com). Table A reports the obtained Kd values (nM), with the Kd being the inhibitor binding constant: […]

[2] = molecular target: T2, PIK3Cδ_h (Homo sapiens, UniProt O00329); assay: Enzyme binding assay (KINOMEscan), PIK3Cδ; details: DiscoveRx
T2 construct: purchased DiscoveRx Corporation
T2 sequence (O00329 1-1044): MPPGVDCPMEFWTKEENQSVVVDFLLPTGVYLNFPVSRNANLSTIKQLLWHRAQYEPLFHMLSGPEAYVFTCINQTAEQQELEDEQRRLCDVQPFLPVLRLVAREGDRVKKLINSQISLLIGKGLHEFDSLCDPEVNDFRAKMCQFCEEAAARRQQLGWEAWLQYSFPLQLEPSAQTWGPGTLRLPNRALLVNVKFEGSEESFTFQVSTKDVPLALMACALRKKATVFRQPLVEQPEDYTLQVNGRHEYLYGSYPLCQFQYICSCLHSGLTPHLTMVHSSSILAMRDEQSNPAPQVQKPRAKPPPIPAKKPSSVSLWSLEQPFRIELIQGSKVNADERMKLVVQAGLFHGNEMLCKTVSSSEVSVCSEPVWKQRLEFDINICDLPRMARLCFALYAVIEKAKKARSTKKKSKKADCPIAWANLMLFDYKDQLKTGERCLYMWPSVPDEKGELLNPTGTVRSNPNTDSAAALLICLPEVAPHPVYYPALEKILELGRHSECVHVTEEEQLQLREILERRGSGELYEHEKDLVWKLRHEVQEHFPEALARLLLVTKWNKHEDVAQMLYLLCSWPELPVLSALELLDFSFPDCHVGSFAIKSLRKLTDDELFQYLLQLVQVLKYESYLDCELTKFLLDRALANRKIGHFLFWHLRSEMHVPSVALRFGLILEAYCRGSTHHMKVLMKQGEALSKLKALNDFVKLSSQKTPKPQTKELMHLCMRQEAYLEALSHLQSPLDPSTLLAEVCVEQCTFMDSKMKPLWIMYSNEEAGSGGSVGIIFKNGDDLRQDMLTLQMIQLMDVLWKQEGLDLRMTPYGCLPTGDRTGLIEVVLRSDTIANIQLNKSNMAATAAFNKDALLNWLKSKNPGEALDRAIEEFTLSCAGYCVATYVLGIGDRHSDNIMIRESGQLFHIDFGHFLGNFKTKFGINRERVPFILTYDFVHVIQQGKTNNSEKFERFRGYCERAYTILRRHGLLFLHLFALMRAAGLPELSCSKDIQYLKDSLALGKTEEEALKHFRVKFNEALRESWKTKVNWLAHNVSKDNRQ
Description: as §1, §2

[3] = system: phosphorylation of Akt at Ser473 in PC-3 cells; assay: Cellular assay: phospho-Akt (Ser473) MSD ELISA in PC-3 cells; format: cell-based; details: 60 min incubation with compound, read-out: IC50 pAkt_S473
Description: (§3) Cellular activity of PI3Kβ inhibitors was determined by quantifying the phosphorylation of Akt in PC-3 cells. Akt phosphorylated at Ser473 and Thr308 were measured using an enzyme-linked immunosorbent assay (ELISA; Meso Scale Discovery (MSD), Gaithersburg, Md.) and specific primary antibodies from MSD.
(§4) On day 1, PC3 cells (ATCC # […]) were seeded into PerkinElmer MW96 plates at 25.000 cells per well, in 75 μl complete culture medium (DMEM high glucose, AQmedia™, D0819, Sigma-Aldrich) containing 10% heat inactivated FCS and incubated at 37° C., 5% CO2 during 24 hours. On day 2, compound or DMSO (0.3%) was added and cells were further incubated for 60 min at 37° C., 5% CO2 in a total volume of 100 μl of medium.
(§5) The phosphoprotein assay was executed according to vendor instructions in the Phospho-Akt (Ser473) Assay Whole Cell Lysate Kit (MSD # K15100D-3) and the Phospho-Akt (Thr308) Assay Whole Cell Lysate Kit (MSD # K151DYD-3) using the lysis, blocking and wash buffer provided.
(§6) Briefly, at the end of the cell treatment period, media were removed by aspiration and adherent cells were lysed in 50 μl ice-cold lysis buffer. MSD plates are supplied pre-coated with capture antibodies for Phospho-Akt (Ser473 and Thr308). After blocking, lysates from tissue culture plates were added and plates were washed. Then, a solution containing the detection antibody (anti-total Akt conjugated with an electrochemiluminescent compound-MSD Sulfo-tag label) was added. The signals were detected using an MSD SECTOR Imager 6000 and are proportional to the phospho-Akt titres.
(§7) Data were processed. The percentage of inhibition was plotted against the log concentration of test compounds, and the sigmoidal log concentration-effect curve of best fit was calculated by nonlinear regression analysis. From these concentration-response curves, the IC50 values were calculated. Five concentrations were used for curve fitting.

[4] = system: phosphorylation of Akt at Thr308 in PC-3 cells; assay: Cellular assay: phospho-Akt (Thr308) MSD ELISA in PC-3 cells; format: cell-based; details: 60 min incubation with compound, read-out: IC50 pAkt_Thr308
Description: as §3, §4, §5, §6, §7

[5] = molecular target: T3, PIK3Cβ_h (Homo sapiens, UniProt P42338); assay: Enzyme binding assay (KINOMEscan), PIK3Cβ; details: DiscoveRx
T3 construct: purchased DiscoveRx Corporation
T3 sequence (P42338 whole entry): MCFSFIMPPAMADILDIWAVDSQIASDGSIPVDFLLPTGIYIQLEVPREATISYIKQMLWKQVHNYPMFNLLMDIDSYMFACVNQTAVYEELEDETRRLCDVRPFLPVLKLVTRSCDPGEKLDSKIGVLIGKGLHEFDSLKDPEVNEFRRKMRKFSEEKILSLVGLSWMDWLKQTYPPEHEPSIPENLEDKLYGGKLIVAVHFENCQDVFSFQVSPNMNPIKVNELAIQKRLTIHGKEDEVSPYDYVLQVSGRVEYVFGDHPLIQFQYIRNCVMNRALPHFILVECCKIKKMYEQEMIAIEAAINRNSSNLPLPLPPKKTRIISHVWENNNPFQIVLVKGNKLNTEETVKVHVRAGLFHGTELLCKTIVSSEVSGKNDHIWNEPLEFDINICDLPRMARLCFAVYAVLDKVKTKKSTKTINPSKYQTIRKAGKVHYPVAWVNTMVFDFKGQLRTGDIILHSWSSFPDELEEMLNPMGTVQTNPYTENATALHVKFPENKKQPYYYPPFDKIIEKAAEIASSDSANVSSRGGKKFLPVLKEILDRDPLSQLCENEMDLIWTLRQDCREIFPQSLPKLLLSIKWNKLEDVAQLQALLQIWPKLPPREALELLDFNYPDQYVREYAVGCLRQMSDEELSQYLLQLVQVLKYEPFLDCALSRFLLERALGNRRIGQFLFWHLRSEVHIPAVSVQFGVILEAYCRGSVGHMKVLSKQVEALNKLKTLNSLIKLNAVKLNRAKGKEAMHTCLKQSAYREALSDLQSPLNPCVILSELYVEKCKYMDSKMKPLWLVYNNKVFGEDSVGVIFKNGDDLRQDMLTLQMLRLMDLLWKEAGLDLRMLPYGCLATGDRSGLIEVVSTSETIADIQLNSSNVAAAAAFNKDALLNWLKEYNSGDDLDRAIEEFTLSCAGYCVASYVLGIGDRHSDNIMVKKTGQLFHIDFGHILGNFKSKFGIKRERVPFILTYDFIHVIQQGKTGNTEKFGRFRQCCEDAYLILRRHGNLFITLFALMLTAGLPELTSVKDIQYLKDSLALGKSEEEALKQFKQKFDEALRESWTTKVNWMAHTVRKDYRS
Description: as §1, §2

[6] = molecular target: T4, PIK3Cγ_h (Homo sapiens, UniProt P48736); assay: Enzyme binding assay (KINOMEscan), PIK3Cγ; details: DiscoveRx
T4 construct: purchased DiscoveRx Corporation
T4 sequence (P48736 whole entry): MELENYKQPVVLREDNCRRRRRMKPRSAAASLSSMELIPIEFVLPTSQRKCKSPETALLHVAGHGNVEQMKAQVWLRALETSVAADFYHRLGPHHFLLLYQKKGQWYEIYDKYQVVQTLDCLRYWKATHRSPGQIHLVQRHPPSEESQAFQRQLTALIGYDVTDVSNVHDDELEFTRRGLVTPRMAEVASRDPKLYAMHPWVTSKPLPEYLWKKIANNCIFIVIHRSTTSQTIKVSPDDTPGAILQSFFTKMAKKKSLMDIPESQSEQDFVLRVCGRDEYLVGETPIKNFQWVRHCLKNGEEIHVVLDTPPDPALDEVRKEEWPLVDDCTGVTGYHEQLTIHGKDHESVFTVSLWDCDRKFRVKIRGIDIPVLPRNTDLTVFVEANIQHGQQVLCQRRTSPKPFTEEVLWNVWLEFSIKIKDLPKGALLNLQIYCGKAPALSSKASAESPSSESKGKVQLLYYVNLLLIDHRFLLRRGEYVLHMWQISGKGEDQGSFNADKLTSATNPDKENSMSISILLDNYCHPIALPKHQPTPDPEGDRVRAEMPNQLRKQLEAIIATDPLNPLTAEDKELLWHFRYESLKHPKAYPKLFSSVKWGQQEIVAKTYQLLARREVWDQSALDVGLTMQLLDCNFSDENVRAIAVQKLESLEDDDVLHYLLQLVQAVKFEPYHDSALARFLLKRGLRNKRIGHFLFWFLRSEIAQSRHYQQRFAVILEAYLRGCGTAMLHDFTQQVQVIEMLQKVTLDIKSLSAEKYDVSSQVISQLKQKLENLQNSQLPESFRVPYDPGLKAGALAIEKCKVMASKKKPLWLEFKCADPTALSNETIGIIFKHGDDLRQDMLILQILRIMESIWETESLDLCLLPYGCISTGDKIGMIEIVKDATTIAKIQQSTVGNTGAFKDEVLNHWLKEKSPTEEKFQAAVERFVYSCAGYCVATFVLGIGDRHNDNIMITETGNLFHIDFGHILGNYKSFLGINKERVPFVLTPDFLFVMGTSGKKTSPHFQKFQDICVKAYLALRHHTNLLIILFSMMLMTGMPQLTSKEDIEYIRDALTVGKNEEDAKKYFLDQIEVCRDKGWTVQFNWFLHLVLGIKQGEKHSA
Description: as §1, §2

[7] = molecular target: T5, MTOR_h (Homo sapiens, UniProt P42345); assay: Enzyme binding assay (KINOMEscan), MTOR; details: DiscoveRx
T5 construct: purchased DiscoveRx Corporation
Description: as §1, §2

T1 sequence (P42336 whole entry): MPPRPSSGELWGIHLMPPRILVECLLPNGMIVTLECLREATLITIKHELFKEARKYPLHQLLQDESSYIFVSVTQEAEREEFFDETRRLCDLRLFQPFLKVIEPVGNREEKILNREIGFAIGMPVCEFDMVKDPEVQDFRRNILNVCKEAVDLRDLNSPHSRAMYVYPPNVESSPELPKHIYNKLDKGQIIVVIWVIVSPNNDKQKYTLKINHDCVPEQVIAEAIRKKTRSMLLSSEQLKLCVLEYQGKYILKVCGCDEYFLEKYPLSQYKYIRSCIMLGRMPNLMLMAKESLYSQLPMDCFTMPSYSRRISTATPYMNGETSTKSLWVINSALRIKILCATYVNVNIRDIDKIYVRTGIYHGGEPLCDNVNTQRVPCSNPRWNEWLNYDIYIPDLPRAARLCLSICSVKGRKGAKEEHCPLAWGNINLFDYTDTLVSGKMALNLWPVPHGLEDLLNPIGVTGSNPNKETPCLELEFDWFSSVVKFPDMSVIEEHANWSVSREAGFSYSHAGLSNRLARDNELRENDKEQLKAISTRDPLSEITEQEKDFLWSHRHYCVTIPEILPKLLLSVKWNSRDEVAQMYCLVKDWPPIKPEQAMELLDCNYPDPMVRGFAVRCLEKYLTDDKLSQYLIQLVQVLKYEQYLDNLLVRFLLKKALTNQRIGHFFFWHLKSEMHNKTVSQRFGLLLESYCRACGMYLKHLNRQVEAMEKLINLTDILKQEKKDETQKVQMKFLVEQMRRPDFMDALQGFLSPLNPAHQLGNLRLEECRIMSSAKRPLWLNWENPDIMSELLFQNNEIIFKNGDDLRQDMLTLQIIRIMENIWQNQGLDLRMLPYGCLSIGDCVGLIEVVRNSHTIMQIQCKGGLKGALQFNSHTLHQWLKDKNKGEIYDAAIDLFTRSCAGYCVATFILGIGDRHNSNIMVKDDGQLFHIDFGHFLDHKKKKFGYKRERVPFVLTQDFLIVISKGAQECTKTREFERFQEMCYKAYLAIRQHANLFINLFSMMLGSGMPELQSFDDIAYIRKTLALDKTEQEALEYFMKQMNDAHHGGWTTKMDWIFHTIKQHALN

Kd [1] | Kd [2] | melting point | IC50 ([3]; Homo sapiens, PC-3, 1 h) | IC50 [4] | Kd [5] | Kd [6] | Kd [7] | IC50 [3] | IC50 ([4]; Homo sapiens, PC-3, 1 h) | Structure (SMILES)
19100 nM | 31600 nM | – | – | > 513 nM | 1070 nM | > 30200 nM | 19500 nM | > 513 nM | – | CN(C)CCNC(=O)c1cc(C2CCCN2c2ccnc(F)c2)c2nc(N3CCOCC3)cnc2c1 (single isomer, unassigned) [Compound 39]
– | 120 nM | – | 2 nM | – | 0.2 nM | 1050 nM | > 30200 nM | – | 2 nM | CN(C)CCNC(=O)c1cc(C2CCCN2c2cncc(F)c2)c2nc(N3CCOCC3)cnc2c1 (single isomer, unassigned) [Compound 40]
209 nM | 52 nM | – | ~17 nM | – | 0.8 nM | 1050 nM | > 30200 nM | – | 3 nM | CN(C)C(=O)c1cc(C2CCCN2c2cncc(F)c2)c2nc(N3CCOCC3)cnc2c1 (stereo not shown) [Compound 41]
646 nM | 46 nM | – | 2 nM | – | 0.5 nM | 2630 nM | > 30200 nM | – | 1 nM | CN(C)CCN(C)C(=O)c1cc(C2CCCN2c2cncc(F)c2)c2nc(N3CCOCC3)cnc2c1 (stereo not shown) [Compound 42]
13500 nM | 550 nM | – | 102 nM | – | 2 nM | 19500 nM | > 30200 nM | – | 66 nM | CN(C)CCNC(=O)c1cc(C2CCCN2c2ccnc(Cl)c2)c2nc(N3CCOCC3)cnc2c1 (stereo not shown) [Compound 46]
17000 nM | 1950 nM | – | > 513 nM | – | 32 nM | 20900 nM | 21900 nM | – | > 513 nM | O=C(NCCO)c1cc(C2CCCN2c2ccnc(Cl)c2)c2nc(N3CCOCC3)cnc2c1 (stereo not shown) [Compound 47]
> 30200 nM | 2460 nM | – | > 513 nM | – | 28 nM | > 30200 nM | > 30200 nM | – | > 513 nM | CNCCOCCN(C)C(=O)c1cc(C2CCCN2c2ccnc(Cl)c2)c2nc(N3CCOCC3)cnc2c1 (stereo not shown) [Compound 49]

Second part, the compound before the results:

Structure (SMILES) | Kd [1] | Kd [2] | melting point | IC50 ([3]; Homo sapiens, PC-3, 1 h) | IC50 [4] | Kd [5] | Kd [6] | Kd [7] | IC50 [3] | IC50 ([4]; Homo sapiens, PC-3, 1 h)
CC(Nc1cncc(F)c1)c1cc(C(=O)N2CC3(C2)CS(=O)(=O)C3)cc2ncc(N3CCOCC3)nc12 (single isomer, unassigned) [Compound 31] | 2820 nM | 1480 nM | 160 °C | > 513 nM | ~72 nM | 9 nM | 16600 nM | > 30200 nM | – | –
CC(Nc1cncc(F)c1)c1cc(C(=O)N2CC3(C2)CS(=O)(=O)C3)cc2ncc(N3CCOCC3)nc12 (single isomer, unassigned) [Compound 32] | > 30200 nM | 22400 nM | 180 °C | – | > 513 nM | 5490 nM | > 30200 nM | > 30200 nM | > 513 nM | –
COC(=O)c1cc(C(C)Nc2cncc(F)c2)c2nc(N3CCOCC3)cnc2c1 (stereo not shown) [Compound 6] | – | – | 240 °C | – | – | – | – | – | – | –
O=C(NCCO)c1cc(NCc2cncc(F)c2)c2nc(N3CCOCC3)cnc2c1 [Compound 29] | – | – | 198 °C | > 513 nM | – | – | – | – | – | > 513 nM
CN(C)CCNC(=O)c1cc(C2CCCN2c2cc(Cl)cc(Cl)n2)c2nc(N3CCOCC3)cnc2c1 (stereo not shown) [Compound 45] | 479 nM | 32 nM | – | 7 nM | – | 0.3 nM | 457 nM | 12300 nM | – | 4 nM
CN(C)CCNC(=O)c1cc(C2CCCN2c2cncc(Cl)n2)c2nc(N3CCOCC3)cnc2c1 (stereo not shown) [Compound 50] | 1660 nM | 162 nM | – | 19 nM | – | 0.9 nM | 3310 nM | > 30200 nM | – | 12 nM
CN(C)CCNC(=O)c1cc(C2CCCN2c2cncc(Br)n2)c2nc(N3CCOCC3)cnc2c1 (stereo not shown) [Compound 51] | 9120 nM | 3470 nM | – | > 513 nM | – | 20 nM | > 30200 nM | > 30200 nM | – | > 513 nM
CN(C)CCNC(=O)c1cc(C2CCCN2c2cncc(F)n2)c2nc(N3CCOCC3)cnc2c1 (stereo not shown) [Compound 52] | – | – | – | > 513 nM | – | – | – | – | – | > 513 nM
